Assays:
[1] = target: T1, Human Calpain 1/NS1 (Homo sapiens, UniProt P07384); experiment: Calpain inhibition continuous fluorescence (FRET) assay, Human Calpain 1/NS1; format: biochemical; details: Column A; read-out: Human Calpain 1/NS1 IC50
T1 sequence (P07384 1-714): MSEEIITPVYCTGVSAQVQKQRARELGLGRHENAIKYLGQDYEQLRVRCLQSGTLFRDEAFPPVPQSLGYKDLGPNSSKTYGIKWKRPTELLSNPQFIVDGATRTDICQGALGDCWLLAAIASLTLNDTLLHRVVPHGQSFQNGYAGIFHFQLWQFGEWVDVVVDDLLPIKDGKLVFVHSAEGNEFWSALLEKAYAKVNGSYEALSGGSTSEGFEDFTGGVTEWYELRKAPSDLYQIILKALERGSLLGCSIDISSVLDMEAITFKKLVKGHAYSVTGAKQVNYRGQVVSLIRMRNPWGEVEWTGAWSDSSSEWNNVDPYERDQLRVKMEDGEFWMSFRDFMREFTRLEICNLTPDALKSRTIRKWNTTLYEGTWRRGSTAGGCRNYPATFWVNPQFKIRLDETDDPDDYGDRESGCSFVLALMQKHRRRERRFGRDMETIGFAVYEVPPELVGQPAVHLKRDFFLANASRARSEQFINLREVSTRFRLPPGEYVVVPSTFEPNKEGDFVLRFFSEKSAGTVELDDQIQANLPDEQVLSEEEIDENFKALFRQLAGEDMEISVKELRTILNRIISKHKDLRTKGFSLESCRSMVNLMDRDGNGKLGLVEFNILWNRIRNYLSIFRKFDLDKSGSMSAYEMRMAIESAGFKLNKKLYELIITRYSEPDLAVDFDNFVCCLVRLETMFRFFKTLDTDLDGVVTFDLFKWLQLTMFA
T1 sequence (P04632 1-268 partner): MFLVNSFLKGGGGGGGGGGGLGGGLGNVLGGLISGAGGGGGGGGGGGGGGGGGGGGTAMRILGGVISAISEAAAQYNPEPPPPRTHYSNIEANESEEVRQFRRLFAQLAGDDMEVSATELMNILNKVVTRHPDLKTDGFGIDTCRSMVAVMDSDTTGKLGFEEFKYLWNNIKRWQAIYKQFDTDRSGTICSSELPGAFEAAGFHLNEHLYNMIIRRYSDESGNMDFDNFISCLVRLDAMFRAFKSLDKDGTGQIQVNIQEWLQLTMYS
Procedure, shortened: (§1)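 Continuous FRET read (ex 490/em 520 nm, 10 min) of calpain 1, 2 or 9 cleaving an internally quenched 5-FAM peptide, triggered by substrate with CaCl2 after enzyme–inhibitor incubation at ambient 25 °C, pH 7.5 Tris/NaCl/DTT buffer. IC50 from initial rates (1-5 min) via 4-parameter fit.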

[2] = target: T2, Human Calpain 9/NS1 (Homo sapiens, UniProt O14815); experiment: Calpain inhibition continuous fluorescence (FRET) assay, Human Calpain 9/NS1; format: biochemical; details: Column C; read-out: Human Calpain 9/NS1 IC50
T2 sequence (O14815 1-690): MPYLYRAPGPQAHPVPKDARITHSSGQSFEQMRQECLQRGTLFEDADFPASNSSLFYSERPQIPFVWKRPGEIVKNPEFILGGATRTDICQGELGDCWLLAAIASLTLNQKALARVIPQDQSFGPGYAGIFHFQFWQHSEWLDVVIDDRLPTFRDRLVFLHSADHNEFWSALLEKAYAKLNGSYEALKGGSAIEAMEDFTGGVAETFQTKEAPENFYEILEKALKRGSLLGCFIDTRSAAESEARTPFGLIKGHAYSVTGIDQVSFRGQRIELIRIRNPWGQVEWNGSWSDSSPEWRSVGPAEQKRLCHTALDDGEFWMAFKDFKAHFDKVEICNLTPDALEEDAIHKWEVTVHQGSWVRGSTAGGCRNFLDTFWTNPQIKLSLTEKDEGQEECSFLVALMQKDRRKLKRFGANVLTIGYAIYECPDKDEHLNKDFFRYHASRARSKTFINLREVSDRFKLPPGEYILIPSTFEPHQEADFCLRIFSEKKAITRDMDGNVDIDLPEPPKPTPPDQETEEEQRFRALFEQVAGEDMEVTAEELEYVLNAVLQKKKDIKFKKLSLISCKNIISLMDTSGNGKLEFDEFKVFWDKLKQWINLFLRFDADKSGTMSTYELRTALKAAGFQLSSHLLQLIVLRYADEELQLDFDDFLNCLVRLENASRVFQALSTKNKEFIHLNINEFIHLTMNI
T2 sequence (P04632 1-268 partner): T1 sequence (P04632 1-268 partner)
Procedure, shortened: as §1

[3] = system: Calpain activity in SH-SY5Y cells; experiment: SH-SY5Y + AMC fluorescence assay (Suc-LLVY-AMC substrate); format: cell-based; details: Column E, read-out: SH-SY5Y + AMC IC50
[4] = target: T3, Human Calpain 2/NS1 (Homo sapiens, UniProt P17655); experiment: Calpain inhibition continuous fluorescence (FRET) assay, Human Calpain 2/NS1; format: biochemical; details: Column B; read-out: Human Calpain 2/NS1 IC50
T3 sequence (P17655 1-700): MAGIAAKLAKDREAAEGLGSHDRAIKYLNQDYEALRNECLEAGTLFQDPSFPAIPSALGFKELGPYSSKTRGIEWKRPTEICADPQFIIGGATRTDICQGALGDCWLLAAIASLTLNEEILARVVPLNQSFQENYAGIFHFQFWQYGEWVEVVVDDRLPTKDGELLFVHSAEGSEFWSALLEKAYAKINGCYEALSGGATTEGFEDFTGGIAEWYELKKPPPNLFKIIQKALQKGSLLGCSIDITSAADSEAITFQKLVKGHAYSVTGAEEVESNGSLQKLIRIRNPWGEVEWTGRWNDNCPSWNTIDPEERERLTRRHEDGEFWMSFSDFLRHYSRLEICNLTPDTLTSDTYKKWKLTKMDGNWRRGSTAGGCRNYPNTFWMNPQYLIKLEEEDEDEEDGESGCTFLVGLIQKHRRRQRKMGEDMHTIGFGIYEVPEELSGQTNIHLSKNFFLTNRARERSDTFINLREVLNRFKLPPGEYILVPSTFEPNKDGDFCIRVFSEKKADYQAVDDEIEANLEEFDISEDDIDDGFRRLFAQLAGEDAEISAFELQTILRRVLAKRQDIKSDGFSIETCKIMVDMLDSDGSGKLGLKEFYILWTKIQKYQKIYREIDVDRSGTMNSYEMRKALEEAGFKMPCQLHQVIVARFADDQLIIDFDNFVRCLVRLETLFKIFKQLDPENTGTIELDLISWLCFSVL
T3 sequence (P04632 1-268 partner): T1 sequence (P04632 1-268 partner)
Procedure, shortened: as §1

[5] = system: Calpain activity in SH-SY5Y cells (SBDP-150); experiment: SH-SY5Y Spectrin western blot assay (SBDP-150 breakdown product, A23187-induced); format: cell-based; details: Homo sapiens; Column D; SH-SY5Y cells, A23187-induced SBDP-150; read-out: SH-SY5Y Spectrin IC50

Compound	IC50 [1]	IC50 [2]	IC50 [3]	IC50 [4]	IC50 [5]
Cn1nc(Cl)c(C(=O)NC(Cc2ccccc2)C(=O)C(N)=O)c1Cl (centres unmarked) [Compound 282, N-(4-amino-3,4-dioxo-1-phenylbutan-2-yl)-3,5-dichloro-1-methyl-1H-pyrazole-4-carboxamide]	< 3 µM	< 3 µM	< 10 µM	< 3 µM	10 to 25 µM
Cc1cc(C(=O)N[C@H](C=O)Cc2ccccc2)n(-c2cnccn2)n1 [Compound 285, (S)-3-methyl-N-(1-oxo-3-phenylpropan-2-yl)-1-(pyrazin-2-yl)-1H-pyrazole-5-carboxamide]	< 3 µM	< 3 µM	10 to 25 µM	< 3 µM	> 25 µM
NC(=O)C(=O)C(Cc1ccccc1)NC(=O)c1cc(C(F)(F)F)sc1-c1ccccc1 (centres unmarked) [Compound 286]	< 3 µM	< 3 µM	> 25 µM	< 3 µM	< 10 µM
NC(=O)C(=O)[C@H](Cc1ccccc1)NC(=O)c1conc1-c1ccccn1 [Compound 288, (S)—N-(4-amino-3,4-dioxo-1-phenylbutan-2-yl)-3-(pyridin-2-yl)isoxazole-4-carboxamide]	< 3 µM	< 3 µM	> 25 µM	< 3 µM	> 25 µM
NC(=O)C(=O)[C@H](Cc1ccccc1)NC(=O)c1conc1-c1ccc(F)cc1 [Compound 289, (S)—N-(4-amino-3,4-dioxo-1-phenylbutan-2-yl)-3-(4-fluorophenyl)isoxazole-4-carboxamide]	< 3 µM	< 3 µM	> 25 µM	< 3 µM	10 to 25 µM
NC(=O)C(=O)[C@H](Cc1ccccc1)NC(=O)c1nonc1-c1ccccc1 [Compound 293, (S)—N-(4-amino-3,4-dioxo-1-phenylbutan-2-yl)-4-phenyl-1,2,5-oxadiazole-3-carboxamide]	< 3 µM	< 3 µM	< 10 µM	< 3 µM	10 to 25 µM
Cc1cc(C(=O)N[C@@H](Cc2ccccc2)C(=O)C(N)=O)n(-c2nc3ccccc3n2C)n1 [Compound 294, (S)—N-(4-amino-3,4-dioxo-1-phenylbutan-2-yl)-3-methyl-1-(1-methyl-1H-benzo[d]imidazol-2-yl)-1H-pyrazole-5-carboxamide]	3 to 10 µM	< 3 µM	> 25 µM	3 to 10 µM	10 to 25 µM

Next, values leading:

IC50 [1]	IC50 [2]	IC50 [3]	IC50 [4]	IC50 [5]	Compound
< 3 µM	< 3 µM	< 10 µM	< 3 µM	< 10 µM	NC(=O)C(=O)[C@H](Cc1ccccc1)NC(=O)c1oc(C(F)(F)F)nc1-c1ccccc1 [Compound 255, (S)—N-(4-amino-3,4-dioxo-1-phenylbutan-2-yl)-4-phenyl-2-(trifluoromethyl)oxazole-5-carboxamide]
< 3 µM	< 3 µM	< 10 µM	< 3 µM	10 to 25 µM	Cc1n[nH]c(-c2ccccc2)c1C(=O)N[C@@H](Cc1ccccc1)C(=O)C(N)=O [Compound 257, (S)—N-(4-amino-3,4-dioxo-1-phenylbutan-2-yl)-3-methyl-5-phenyl-1H-pyrazole-4-carboxamide]
< 3 µM	< 3 µM	10 to 25 µM	< 3 µM	< 10 µM	Cn1nc(C(=O)N[C@@H](Cc2ccccc2)C(=O)C(N)=O)c(-c2ccccc2)n1 [Compound 259, (S)—N-(4-amino-3,4-dioxo-1-phenylbutan-2-yl)-2-methyl-5-phenyl-2H-1,2,3-triazole-4-carboxamide]
< 3 µM	< 3 µM	> 25 µM	< 3 µM	> 25 µM	Cc1nc(-c2ccccn2)c(C(=O)N[C@@H](Cc2ccccc2)C(=O)C(N)=O)o1 [Compound 266, (S)—N-(4-amino-3,4-dioxo-1-phenylbutan-2-yl)-2-methyl-4-(pyridin-2-yl)oxazole-5-carboxamide]
< 3 µM	< 3 µM	> 25 µM	< 3 µM	> 25 µM	Cn1cnc(-c2ccccc2)c1C(=O)N[C@@H](Cc1ccccc1)C(=O)C(N)=O [Compound 268, (S)—N-(4-amino-3,4-dioxo-1-phenylbutan-2-yl)-1-methyl-4-phenyl-1H-imidazole-5-carboxamide]
< 3 µM	< 3 µM	< 10 µM	< 3 µM	< 10 µM	Cc1cc(C(=O)N[C@@H](Cc2ccccc2)C(=O)C(N)=O)n(-c2ccccc2)n1 [Compound 276, (S)—N-(4-amino-3,4-dioxo-1-phenylbutan-2-yl)-3-methyl-1-phenyl-1H-pyrazole-5-carboxamide]
< 3 µM	< 3 µM	< 10 µM	< 3 µM	10 to 25 µM	NC(=O)C(=O)[C@H](Cc1ccccc1)NC(=O)c1conc1-c1ccccc1F [Compound 277, (S)—N-(4-amino-3,4-dioxo-1-phenylbutan-2-yl)-3-(2-fluorophenyl)isoxazole-4-carboxamide]
< 3 µM	< 3 µM	> 25 µM	< 3 µM	< 10 µM	NC(=O)C(=O)[C@H](Cc1ccccc1)NC(=O)c1c(-c2ccccc2)noc1C(F)(F)F [Compound 278, (S)—N-(4-amino-3,4-dioxo-1-phenylbutan-2-yl)-3-phenyl-5-(trifluoromethyl)isoxazole-4-carboxamide]
< 3 µM	3 to 10 µM	< 10 µM	< 3 µM	10 to 25 µM	Cc1cc(C(=O)N[C@H](C=O)Cc2ccccc2)n(-c2ccncn2)n1 [Compound 279, (S)-3-methyl-N-(1-oxo-3-phenylpropan-2-yl)-1-(pyrimidin-4-yl)-1H-pyrazole-5-carboxamide]
